From ChEMBL document CHEMBL4414576, “Recent advancements in mechanistic studies and structure activity relationship of FoF1 ATP synthase inhibitor as antimicrobial agent” (Eur J Med Chem, 2019)
In brackets after ≈: the same amount, converted by molar mass. Starred links: 1 amine or outer side, 2 acyl side, 3 side chain; linkers in the order of their positions; H or OH if unused. Non-standard residues stand in square brackets, D forms with d. Residues, ends and D or L forms follow the SMILES beside them. *: point of attachment. X2 = CCC(=O)C[C@@H](O)CC(C)C[C@H](N[*:1])C(=O)[*:2]; Leu(3R-OH) = CC(C)[C@@H](O)[C@H](N)C(=O)O; NH((S)CH(Me)CH2NMe2) = C[C@@H](CN(C)C)N*; Pro(4S-Me) = C[C@@H]1CN[C@H](C(=O)O)C1; X1 = CC[C@@H](C)/C=C/C(=O)*; Aib = CC(C)(N)C(=O)O; βAla = NCCC(=O)O

How the values were obtained:
Assay type in all cases: functional
Staphylococcus aureus = assay: Antimicrobial activity against Staphylococcus aureus
Bacillus subtilis = assay: Antimicrobial activity against Bacillus subtilis
Streptococcus pyogenes = assay: Antimicrobial activity against Streptococcus pyogenes
Enterococcus faecalis = assay: Antimicrobial activity against Streptococcus faecalis
Micrococcus luteus = assay: Antimicrobial activity against Sarcina lutea
Microbacterium = assay: Antimicrobial activity against Microbacterium species
Candida = assay: Antifungal activity against Candida
[1] = Antifungal activity against Cryptococcus
Sporotrichum = assay: Antifungal activity against Sporotrichum
Trichophyton = assay: Antifungal activity against Trichophyton
Microsporum = assay: Antifungal activity against Microsporum
Streptococcus pneumoniae = assay: Antimicrobial activity against Streptococcus pneumoniae

MIC (Staphylococcus aureus)	MIC (Bacillus subtilis)	MIC (Streptococcus pyogenes)	MIC (Enterococcus faecalis)	MIC (Micrococcus luteus)	MIC (Microbacterium)	MIC (Candida)	MIC [1]	MIC (Sporotrichum)	MIC (Trichophyton)	MIC (Microsporum)	MIC (Streptococcus pneumoniae)	Compound
2.52 to 50 µg/mL (≈ 2.07 to 41 µM)	2.52 to 50 µg/mL (≈ 2.07 to 41 µM)	2.52 to 50 µg/mL (≈ 2.07 to 41 µM)	2.52 to 50 µg/mL (≈ 2.07 to 41 µM)	2.52 to 50 µg/mL (≈ 2.07 to 41 µM)	2.52 to 50 µg/mL (≈ 2.07 to 41 µM)	1 to 10 µg/mL (≈ 0.821 to 8.21 µM)	1 to 10 µg/mL (≈ 0.821 to 8.21 µM)	1 to 10 µg/mL (≈ 0.821 to 8.21 µM)	1 to 10 µg/mL (≈ 0.821 to 8.21 µM)	1 to 10 µg/mL (≈ 0.821 to 8.21 µM)		CCC(=O)C[C@@H](O)CC(C)C[C@H](NC(=O)[C@@H]1C[C@H](C)CN1C(=O)/C=C/[C@H](C)CC)C(=O)N[C@H](C(=O)NC(C)(C)C(=O)N[C@@H](CC(C)C)C(=O)N[C@@H](CC(C)C)C(=O)NC(C)(C)C(=O)NC(C)(C)C(=O)NCCC(=O)N[C@@H](C)CN(C)C)[C@H](O)C(C)C (stereo partly drawn) (X1-[Pro(4S-Me)][X2][Leu(3R-OH)][Aib]LL[Aib][Aib][βAla]-{NH((S)CH(Me)CH2NMe2)})
											1 µg/mL (≈ 1.85 µM)	COc1nc2ccc(Br)cc2cc1[C@H](c1ccccc1)[C@](O)(CCN(C)C)c1ccc(Cl)cc1
